Test results reported in ChEMBL document CHEMBL3259789, “Indothiazinone, an indolyl thiazolyl ketone from a novel myxobacterium belonging to the Sorangiineae” (J Nat Prod, 2014).
Values after ≈ are worked out from the molar mass of the structure shown. Active and inactive are the calls of the source. No cut-off for these calls is given here.

Tests used:
Staphylococcus aureus [1] = assay: Antimicrobial activity against Staphylococcus aureus DSM 346 at 6.7 to 67 ug/ml by serial dilution method; assay type: functional, organism-based
Candida albicans [2] = assay: Antimicrobial activity against Candida albicans DSM 1665 at 6.7 to 67 ug/ml by serial dilution method; assay type: functional, organism-based
[3] = tested on: Schizosaccharomyces pombe; assay: Antimicrobial activity against Schizosaccharomyces pombe DSM 70572 by serial dilution method; assay type: functional
Paenibacillus polymyxa [4] = assay: Antimicrobial activity against Paenibacillus polymyxa DSM 36 at 6.7 to 67 ug/ml by serial dilution method; assay type: functional
[5] = tested on: Chromobacterium violaceum; assay: Antimicrobial activity against Chromobacterium violaceum DSM 30191 at 6.7 to 67 ug/ml by serial dilution method; assay type: functional, organism-based
Debaryomyces hansenii [6] = assay: Antimicrobial activity against Debaryomyces hansenii DSM 3428 by serial dilution method; assay type: functional
[7] = tested on: Mycolicibacterium diernhoferi; assay: Antimicrobial activity against Mycobacterium diernhoferi DSM 43524 at 6.7 to 67 ug/ml by serial dilution method; assay type: functional, organism-based
Aspergillus clavatus [8] = assay: Antimicrobial activity against Aspergillus clavatus DSM 816 by serial dilution method; assay type: functional
Micrococcus luteus [9] = assay: Antimicrobial activity against Micrococcus luteus DSM 20030 at 6.7 to 67 ug/ml by serial dilution method; assay type: functional, organism-based
[10] = Cytotoxicity against mouse L929 cells after 5 days; assay type: cell-based; settings: read-out: LC50
Mucor hiemalis [11] = assay: Antimicrobial activity against Mucor hiemalis DSM 2656 by serial dilution method; assay type: functional
Wickerhamomyces anomalus [12] = assay: Antimicrobial activity against Pichia anomala DSM 6766 at 6.7 to 67 ug/ml by serial dilution method; assay type: functional, organism-based
Pseudomonas aeruginosa [13] = assay: Antimicrobial activity against Pseudomonas aeruginosa DSM 50071 at 6.7 to 67 ug/ml by serial dilution method; assay type: functional, organism-based
Amorphotheca resinae [14] = assay: Antimicrobial activity against Hormoconis resinae DSM 1203 at 6.7 to 67 ug/ml by serial dilution method; assay type: functional, organism-based
Escherichia coli [15] = assay: Antimicrobial activity against Escherichia coli DSM 1116 at 6.7 to 67 ug/ml by serial dilution method; assay type: functional, organism-based
Trichosporon oleaginosus [16] = assay: Antimicrobial activity against Trichosporon oleaginosus DSM 11815 by serial dilution method; assay type: functional; settings: Cutaneotrichosporon oleaginosum
Nocardia sp. [17] = assay: Antimicrobial activity against Nocardia sp. DSM 43069 by serial dilution method; assay type: functional
Penicillium capsulatum [18] = assay: Antimicrobial activity against Penicillium capsulatum DSM 2210 at 6.7 to 67 ug/ml by serial dilution method; assay type: functional
Eremothecium coryli [19] = assay: Antimicrobial activity against Nematospora coryli DSM 6981 at 6.7 to 67 ug/ml by serial dilution method; assay type: functional, organism-based
Saccharomyces cerevisiae [20] = assay: Antimicrobial activity against Saccharomyces cerevisiae BTc-3A at 6.7 to 67 ug/ml by serial dilution method; assay type: functional, organism-based
Pimelobacter simplex [21] = assay: Antimicrobial activity against Nocardioides simplex DSM 20130 by serial dilution method; assay type: functional
Pichia membranifaciens [22] = assay: Antimicrobial activity against Pichia membranifaciens DSM 21959 at 6.7 to 67 ug/ml by serial dilution method; assay type: functional, organism-based
Rhodotorula glutinis [23] = assay: Antimicrobial activity against Rhodotorula glutinis DSM 10134 by serial dilution method; assay type: functional
Pimelobacter simplex [24] = assay: Antimicrobial activity against Nocardioides simplex DSM 20130 at 6.7 to 67 ug/ml by serial dilution method; assay type: functional
[25] = tested on: Schizosaccharomyces pombe; assay: Antimicrobial activity against Schizosaccharomyces pombe DSM 70572 at 6.7 to 67 ug/ml by serial dilution method; assay type: functional, organism-based
Nocardia sp. [26] = assay: Antimicrobial activity against Nocardia sp. DSM 43069 at 6.7 to 67 ug/ml by serial dilution method; assay type: functional, organism-based
Debaryomyces hansenii [27] = assay: Antimicrobial activity against Debaryomyces hansenii DSM 3428 at 6.7 to 67 ug/ml by serial dilution method; assay type: functional, organism-based
Mucor hiemalis [28] = assay: Antimicrobial activity against Mucor hiemalis DSM 2656 at 6.7 to 67 ug/ml by serial dilution method; assay type: functional, organism-based
Trichosporon oleaginosus [29] = assay: Antimicrobial activity against Trichosporon oleaginosus DSM 11815 at 6.7 to 67 ug/ml by serial dilution method; assay type: functional; settings: Cutaneotrichosporon oleaginosum
Rhodotorula glutinis [30] = assay: Antimicrobial activity against Rhodotorula glutinis DSM 10134 at 6.7 to 67 ug/ml by serial dilution method; assay type: functional, organism-based
Aspergillus clavatus [31] = assay: Antimicrobial activity against Aspergillus clavatus DSM 816 at 6.7 to 67 ug/ml by serial dilution method; assay type: functional, organism-based
Penicillium capsulatum [32] = assay: Antimicrobial activity against Penicillium capsulatum DSM 2210 by serial dilution method; assay type: functional
Candida albicans [33] = assay: Antimicrobial activity against Candida albicans DSM 1665 by serial dilution method; assay type: functional
Wickerhamomyces anomalus [34] = assay: Antimicrobial activity against Pichia anomala DSM 6766 by serial dilution method; assay type: functional, organism-based
Saccharomyces cerevisiae [35] = assay: Antimicrobial activity against Saccharomyces cerevisiae BTc-3A by serial dilution method; assay type: functional, organism-based
Amorphotheca resinae [36] = assay: Antimicrobial activity against Hormoconis resinae DSM 1203 by serial dilution method; assay type: functional, organism-based
Eremothecium coryli [37] = assay: Antimicrobial activity against Nematospora coryli DSM 6981 by serial dilution method; assay type: functional
Pichia membranifaciens [38] = assay: Antimicrobial activity against Pichia membranifaciens DSM 21959 by serial dilution method; assay type: functional, organism-based
Bacillus subtilis [39] = assay: Antimicrobial activity against Bacillus subtilis DSM 10 by serial dilution method; assay type: functional
[40] = tested on: Mycolicibacterium diernhoferi; assay: Antimicrobial activity against Mycobacterium diernhoferi DSM 43524 by serial dilution method; assay type: functional
Staphylococcus aureus [41] = assay: Antimicrobial activity against Staphylococcus aureus DSM 346 by serial dilution method; assay type: functional
[42] = tested on: Chromobacterium violaceum; assay: Antimicrobial activity against Chromobacterium violaceum DSM 30191 by serial dilution method; assay type: functional
Micrococcus luteus [43] = assay: Antimicrobial activity against Micrococcus luteus DSM 20030 by serial dilution method; assay type: functional
Paenibacillus polymyxa [44] = assay: Antimicrobial activity against Paenibacillus polymyxa DSM 36 by serial dilution method; assay type: functional
Escherichia coli [45] = assay: Antimicrobial activity against Escherichia coli DSM 1116 by serial dilution method; assay type: functional
Pseudomonas aeruginosa [46] = assay: Antimicrobial activity against Pseudomonas aeruginosa DSM 50071 by serial dilution method; assay type: functional, organism-based
Bacillus subtilis [47] = assay: Antimicrobial activity against Bacillus subtilis DSM 10 at 6.7 to 67 ug/ml by serial dilution method; assay type: functional, organism-based

Compound | inhibition (Staphylococcus aureus [1]) | inhibition (Candida albicans [2]) | MIC [3] | inhibition (Paenibacillus polymyxa [4]) | inhibition [5] | inhibition [7] | MIC (Aspergillus clavatus [8]) | inhibition (Micrococcus luteus [9]) | CC50 at 120 h [10] | MIC (Mucor hiemalis [11]) | inhibition (Wickerhamomyces anomalus [12]) | inhibition (Pseudomonas aeruginosa [13]) | inhibition (Amorphotheca resinae [14]) | inhibition (Escherichia coli [15]) | MIC (Trichosporon oleaginosus [16]) | inhibition (Penicillium capsulatum [18]) | inhibition (Saccharomyces cerevisiae [20]) | inhibition (Pichia membranifaciens [22]) | MIC (Rhodotorula glutinis [23]) | inhibition [25] | also measured
C=C(C)/C=C/c1ccc2[nH]cc(C/C=N\O)c2c1 | inactive | inactive | 67 µg/mL (≈ 279 µM) | inactive | inactive | inactive | 67 µg/mL (≈ 279 µM) | inactive | 6.8 µg/mL (≈ 28.3 µM) | 67 µg/mL (≈ 279 µM) | inactive | inactive | inactive | inactive | 67 µg/mL (≈ 279 µM) | inactive | inactive | inactive | 67 µg/mL (≈ 279 µM) |  | MIC (Debaryomyces hansenii [6]): 67 µg/mL (≈ 279 µM); MIC (Nocardia sp. [17]): 33.3 µg/mL (≈ 139 µM); inhibition (Eremothecium coryli [19]): inactive; MIC (Pimelobacter simplex [21]): 33.3 µg/mL (≈ 139 µM)
C=C(C)/C=C/c1ccc2[nH]cc(CCO)c2c1 | inactive | inactive |  | inactive | inactive | inactive |  | inactive | > 10 µg/mL |  | inactive | inactive | inactive | inactive |  | inactive | inactive | inactive |  | inactive | inhibition (Pimelobacter simplex [24]): inactive; inhibition (Nocardia sp. [26]): inactive; inhibition (Debaryomyces hansenii [27]): inactive; inhibition (Mucor hiemalis [28]): inactive; inhibition (Eremothecium coryli [19]): inactive; inhibition (Trichosporon oleaginosus [29]): inactive; inhibition (Rhodotorula glutinis [30]): inactive; inhibition (Aspergillus clavatus [31]): inactive
NYSTATIN |  |  | 33.3 µg/mL |  |  |  | 2.1 µg/mL |  |  | 2.1 µg/mL |  |  |  |  | 1 µg/mL |  |  |  | 0.52 µg/mL |  | MIC (Penicillium capsulatum [32]): 16.6 µg/mL; MIC (Candida albicans [33]): 4.2 µg/mL; MIC (Debaryomyces hansenii [6]): 6.7 µg/mL; MIC (Wickerhamomyces anomalus [34]): 4.2 µg/mL; MIC (Saccharomyces cerevisiae [35]): 1.7 µg/mL; MIC (Amorphotheca resinae [36]): < 0.25 µg/mL; MIC (Eremothecium coryli [37]): 4.2 µg/mL; MIC (Pichia membranifaciens [38]): 0.83 µg/mL
O=C(c1nccs1)c1c[nH]c2ccccc12 | inactive | inactive |  | inactive | inactive | inactive | 33.3 µg/mL (≈ 146 µM) | inactive | > 10 µg/mL | 33.3 µg/mL (≈ 146 µM) | inactive | inactive | inactive | inactive | 67 µg/mL (≈ 294 µM) | inactive | inactive | inactive | 67 µg/mL (≈ 294 µM) | inactive | inhibition (Pimelobacter simplex [24]): inactive; inhibition (Nocardia sp. [26]): inactive; inhibition (Debaryomyces hansenii [27]): inactive; MIC (Eremothecium coryli [37]): 33.3 µg/mL (≈ 146 µM)
CN(C)[C@@H]1C(O)=C(C(N)=O)C(=O)[C@@]2(O)C(O)=C3C(=O)c4c(O)cccc4[C@@](C)(O)[C@H]3[C@H](O)[C@@H]12.Cl [OXYTETRACYCLINE HYDROCHLORIDE] |  |  |  |  |  |  |  |  |  |  |  |  |  |  |  |  |  |  |  |  | MIC (Bacillus subtilis [39]): 8.3 µg/mL; MIC [40]: < 0.25 µg/mL; MIC (Staphylococcus aureus [41]): 0.21 µg/mL; MIC (Nocardia sp. [17]): 8.3 µg/mL; MIC [42]: 1 µg/mL; MIC (Micrococcus luteus [43]): 3.3 µg/mL; MIC (Pimelobacter simplex [21]): 16.6 µg/mL; MIC (Paenibacillus polymyxa [44]): 8.3 µg/mL; MIC (Escherichia coli [45]): 1 µg/mL
GENTAMICIN |  |  |  |  |  |  |  |  |  |  |  |  |  |  |  |  |  |  |  |  | MIC (Pseudomonas aeruginosa [46]): 67 µg/mL
C=C(C)/C=C/c1ccc2[nH]cc(C/C=N/O)c2c1 | inactive | inactive | 67 µg/mL (≈ 279 µM) | inactive | inactive | inactive | 67 µg/mL (≈ 279 µM) | inactive | 6.8 µg/mL (≈ 28.3 µM) | 67 µg/mL (≈ 279 µM) | inactive | inactive | inactive | inactive | 67 µg/mL (≈ 279 µM) | inactive | inactive | inactive | 67 µg/mL (≈ 279 µM) |  | MIC (Debaryomyces hansenii [6]): 67 µg/mL (≈ 279 µM); MIC (Nocardia sp. [17]): 33.3 µg/mL (≈ 139 µM); inhibition (Eremothecium coryli [19]): inactive; MIC (Pimelobacter simplex [21]): 33.3 µg/mL (≈ 139 µM)
CC(=O)/C=C/c1ccc2[nH]cc(CCO)c2c1 | inactive | inactive |  |  | inactive |  |  | inactive |  |  | inactive | inactive |  | inactive |  |  |  |  |  | inactive | inhibition (Bacillus subtilis [47]): inactive; inhibition (Mucor hiemalis [28]): inactive; inhibition (Rhodotorula glutinis [30]): inactive
CC1=C(CCO)C(=O)c2ccccc2C1=O |  |  |  |  |  |  |  | inactive |  | 67 µg/mL (≈ 310 µM) | inactive |  |  | inactive |  |  |  |  | 67 µg/mL (≈ 310 µM) | inactive | MIC (Bacillus subtilis [39]): 33.3 µg/mL (≈ 154 µM); MIC (Candida albicans [33]): 67 µg/mL (≈ 310 µM); MIC (Staphylococcus aureus [41]): 33.3 µg/mL (≈ 154 µM); MIC [42]: 67 µg/mL (≈ 310 µM)
